# Measurements taken from patent US20180085359A1, “USE OF CHELATORS OF DIVALENT CATIONS TO PROMOTE NERVE REGENERATION” (CHILDREN'S MEDICAL CENTER CORPORATION, priority 2012, published 2018).
# Where “and” joins values, the source holds several entries; their conditions need not be identical. Equal values may be shown once. Entries after “also recorded” stand apart in the source; their conditions may differ.
# Experiments:
# [1] = tested on: RGC axons in the optic nerve; test: Optic nerve axon regeneration after optic nerve crush, GAP-43-positive axons distal to the crush site; assay type: in vivo, mouse; conditions: for effect on axon regeneration: intraocular injection, days 0 and 4 after ONC; for effect on axon regeneration / most effective concentration for axon regeneration: evaluated at 2 weeks; for maximally effective concentration for axon regeneration (unit not given): FIG. 4 / FIG. 7, 2 weeks after optic nerve injury, multiple injections; for added effect of pre-treatment (additional injection one day before ONC) on axon regeneration: compared with 2 post-injury injections; for most effective concentration for axon regeneration: intraocular injection immediately after optic nerve crush and 4 days later; for axon regeneration in combination with pten gene deletion: pten deleted in RGCs by AAV2-Cre, 2 weeks
# Procedure: (§1) Studies were performed at Children's Hospital Boston with the approval of the Institutional Animal Care and Use Committee. Experiments used male mice of the strain C57BL/6J (Jackson lab, Bar Harbor, Me.), at 8- to 10-week-old age.
# (§2) Adult mice were anesthetized with a combination of ketamine and xylazine given intraperitoneally. A conjunctival incision was made over the dorsal aspect of one eye, which is then gently rotated downward in the orbit. The orbital muscles were slightly separated to expose the optic nerve at its exit from the globe, which were then crushed for 5 seconds with jewelers' forceps (Dumont number 5) near the back of the eye (within 0.5 mm). […] Same volume PBS was injected intravitreally in control group.
# (§3) Mice were sacrificed with an overdose of anesthesia 14 d after optic nerve injury and were perfused with saline and 4% paraformaldehyde (PFA). […]. Optic nerves and eyes were dissected and postfixed in PFA. Nerves were impregnated with 30% sucrose, embedded in OCT Tissue Tek Medium (Sakura Finetek), frozen, cut in the longitudinal plane at 14 μm, and mounted on coated slides. Regenerating axons were visualized by staining with a sheep antibody to GAP-43 followed by a fluorescently labeled secondary antibody.
# Axon growth was quantified by counting the number of GAP-43-positive axons extending 0.5, 1, 1.5 and 2 mm from the end of the crush site in at least eight sections per case. The cross-sectional width of the nerve was measured at the point at which the counts were taken and was used to calculate the number of axons per millimeter of nerve width. The number of axons per millimeter was then averaged over the number of sections. Σad, the total number of axons extending distance din a nerve having a radius of r, was estimated by summing over all sections having a thickness t (14 μm):
# Σad=πr^2×[average axons/mm]/t
# [2] = tested on: retinal ganglion cells (RGC); test: RGC survival after optic nerve crush, βIII-tubulin-stained retinal whole mounts; assay type: in vivo, mouse; conditions: for RGC survival when chelator given only on Day 3: single administration 3 d after ONC
# Procedure: as §1, §2, §3
# Images of eight preselected areas, 2 mm from the optic disc were captured under fluorescent illumination (400×; E800; Nikon). βIII-Tubulin-positive cells were counted using NIH ImageJ software (Wayne Rasband, National Institutes of Health, Bethesda, Md.). Cell densities were averaged across all eight areas.
# [3] = tested on: Caspase-3; test: Caspase-3 immunostaining of retinal cross-sections 5 days after optic nerve crush; assay type: in vivo, mouse
# Excerpt: (§4) FIG. 6A-FIG. 6C show results from experiments that indicate Chelation of free Zn^2+ suppresses molecular changes that lead to RGC apoptosis. A) Cross-sections through the normal retina or 5 days after optic nerve crush, with or without treatment with the Zn^2+ chelator TPEN. Sections were immunostained to detect the anti-apoptotic protein Bcl-xL or the pro-apoptotic enzymes Caspase-3 or -8. B) C) Quantitation of cellular changes (avg. number of stained cells per section). Optic nerve injury causes a marked elevation of Caspases-3 and -8. […] BclxL levels have not been quantified yet, but appear to decrease with optic nerve injury and to be partially preserved by TPEN treatment. gcl: ganglion cell layer; ipl, inner plexiform layer; ink inner nuclear layer.
# (§5) Retinal cross-sections from normal mice or 5 days after optic nerve crush, with or without TPEN treatment. Sections were immunostained for the anti-apoptotic protein Bcl-xL or the pro-apoptotic enzymes Caspase-3 or -8. Optic nerve injury causes a marked elevation of Caspases-3 and -8 and a decline in Bcl-xL. TPEN diminishes the expression of Caspases-3 and -8 and attenuates the decline in Bcl-xL gcl: ganglion cell layer; ipl, inner plexiform layer; inl, inner nuclear layer.
# [4] = tested on: Bcl-xL; test: Bcl-xL immunostaining of retinal cross-sections 5 days after optic nerve crush; assay type: in vivo, mouse
# Excerpt: as §4, §5
# [5] = tested on: free Zn^2+ in the inner plexiform layer of the retina; test: Free Zn2+ in the retina after optic nerve injury by autometallography (AMG); assay type: in vivo, mouse; conditions: chelator injected intraocularly
# Procedure: A) and B) Mice underwent unilateral optic nerve injury and received i.p. injections of sodium selenite immediately afterwards. Levels of free Zn^2+ increase within 6 hours. C) and D) TPEN (100 μM injections starting 1 day before nerve injury) suppresses the increase in free Zn^2+. The temporal resolution of this method is limited by the time delay for TPEN to reach the retina.
# We investigated the hypothesis that the liberation of free Zn2+ plays a role in RGC death after axonal injury.
# To investigate the possible relationship between ionic Zn^2+ and nerve regeneration, we used autometallography (AMG) to examine changes in the retina, injecting Na2SeO3 i.p. at various times after ONC and euthanizing mice 6 hr later. We detected a dramatic increase in labeling in the IPL, the layer of the retina that contains synaptic inputs from retinal interneurons onto RGC dendrites, especially in 2 sublayers (FIG. 11B). IPL labeling in-creased up to 24 hr but declined by 3 days, at which time labeling appeared in RGCs themselves. […] This interpretation is supported by studies using a membrane-permeable fluorescent Zn^2+ sensor, Zinpyr1, which has a strong preference for Zn^2+ over Ca^2+ (41). […] As with AMG, Zinpyr1 labeling was elevated in RGCs but not IPL at 3 days (FIG. 11K). The Zn^2+ transporter ZnT3 is also localized in the IPL (FIG. 11L).
# [6] = tested on: Adult rat RGCs; test: Axon outgrowth in cultured adult RGCs in defined media; assay type: cell-based; conditions: ZX1 10 μM; with or without forskolin, mannose, oncomodulin
# [7] = Hydrolytic stability of the sulfonate ester at pH 7; assay type: physicochemical
# [8] = tested on: porcine liver esterase (PLE); test: Enzymatic cleavage by esterase followed by UV/vis; assay type: in vitro ADME; conditions: 25% MeOH/PBS at 37° C., 0.2 unit/ml porcine liver esterase
# Procedure: A) change of UV/vis spectrum of 3 in 25% MeOH/PBS upon addition of esterase at 37° C. The final spectrum matched the spectrum of ZX1 (B). A) Insert: the decrease of absorbance at 340 nm.
# The AcOTFMB sulfonate ester, 1, was synthesized with 88% yield by esterifying 2-nitrobenzenesulfonyl chloride with the corresponding alcohol in the presence of DABCO as the base. Reduction of the nitro functionality with hydrogen afforded the aniline, 2, with 99% yield. The dipicolylamine (DPA) zinc-binding unit can be installed to the aniline via reduction amination to afford the target molecule, 3, in 10% yield (Scheme 1). […] In 25% MeOH/PBS at 37° C., upon introduction of 0.2 unit/ml porcine liver esterase (PLE), The UV/vis spectrum gradually changes with an isosbestic point of 317 nm, to produce a peak at 307 nm (FIG. 10).
# [9] = injected into the eye just after ONC and again after 4 days
compound,measurement,setting,value
O=C(O)CN(CCN(CC(=O)O)CC(=O)O)CC(=O)O.[Ca] [CaEDTA],effect on axon regeneration,[1],led to axon outgrowth
same,effect on RGC survival 2 weeks after ONC,[2]; [9],doubled
same,effect on RGC survival 2 weeks after ONC,"[2]; injected into the eye just after ONC and again after 4 days, listed as Ca-EDTA",promotes cell survival
"CC[N+](CC)(CC)CC [TEA, tetraethylammonium]",RGC survival after optic nerve injury with K+ channel blockers,[2]; FIG. 16,blocks RGC death after ONC to the same extent as TPEN; also recorded: strong effect
same,concentration affording strong protection of RGCs,"[2]; mouse, in vivo",< 100 µM and 100 µM
"c1ccc(CN(CCN(Cc2ccccn2)Cc2ccccn2)Cc2ccccn2)nc1 [TPEN, N,N,N′,N′-tetrakis(2-pyridylmethyl)ethylenediamine]",maximally effective concentration for axon regeneration (unit not given),[1]; in µM,100-500
same,added effect of pre-treatment (additional injection one day before ONC) on axon regeneration,[1],markedly increased the number of regenerating axons; also recorded: augmented the amount of regeneration
same,most effective concentration for axon regeneration,[1],100 µM
same,effect on axon regeneration,[1],led to axon outgrowth
same,axon regeneration in combination with pten gene deletion,[1],much greater effects on regeneration than either one alone; also recorded: double
same,axon regeneration when injected on D3,[1]; single administration 3 d after ONC,did not promote regeneration
same,injury-induced increase in Caspase-3,[3],suppressed; also recorded: diminishes the number of Caspase-3 positive cells
same,added effect of pre-treatment (additional injection one day before ONC) on RGC survival,[2]; compared with injections on day 0 and day 4 only,not augmented; also recorded: did not enhance RGC survival
same,effect on RGC survival 2 weeks after ONC,[2]; [9],protected RGCs
same,most effective concentration for RGC survival,"[2]; intraocular, day 0 and day 4 after optic nerve crush, survival at 2 weeks",100 µM
same,RGC survival in combination with pten gene deletion,"[2]; pten deleted in RGCs by AAV2-Cre, 2 weeks",no additional effect
same,RGC survival when chelator given only on Day 3,[2],fully protective
same,long-lasting RGC survival,[2]; up to 12 wk after ONC,enduring protection
same,injury-induced decrease in Bcl-xL,[4],suppressed; also recorded: partially blocks Bcl-xL loss after ONC
same,free Zn2+ level / AMG labeling in the retina after optic nerve injury,[5],diminishes Zn2+ levels; also recorded: blocked injury-induced labeling in the IPL
O=S(=O)(O)c1ccccc1NCCN(Cc1ccccn1)Cc1ccccn1 [ZX1],GAP-43-positive axons at 0.5 mm from crush site,"[1]; 2 weeks after crush, ZX1 10 μM˜10 mM injection, crush alone 7.05±2.49 axons",up to 164 axons
same,maximally effective concentration for axon regeneration (unit not given),[1],30 µM
same,added effect of pre-treatment (additional injection one day before ONC) on axon regeneration,[1],augmented the amount of regeneration
same,most effective concentration for axon regeneration,[1],100 µM
same,effect on axon regeneration,[1],induces extensive regeneration; also recorded: similarly effective in inducing regeneration
same,axon regeneration when added to Zymosan + cAMP alone,"[1]; long-term, FIG. 18",increases the effect of Zymosan+ cAMP alone
same,"axon regeneration when added to Zymosan, elevation of cAMP and pten gene deletion","[1]; long-term, examined 12 weeks after chelator",nearly doubles the amount of regeneration seen at short distances from the injury site
same,axon regeneration in combination with pten gene deletion,[1],double
same,axon outgrowth of cultured RGCs,[6],no effect
same,dose dependence of RGC survival,[2]; ZX1 between 10 μM and 10 mM,roughly equally effective in promoting cell survival; also recorded: equally protective against RGC death at all concentrations from 10 μM up
same,effect on RGC survival 2 weeks after ONC,[2]; [9],just as effective as TPEN; also recorded: doubled
same,RGC survival when chelator given only on Day 3,[2],less effective
same,free Zn2+ level / AMG labeling in the retina after optic nerve injury,[5],blocked injury-induced labeling in the IPL
O=C(O)CN(CCN(CC(=O)O)CC(=O)O)CC(=O)O.[Zn] [ZnEDTA],effect on axon regeneration,[1],not
same,effect on RGC survival 2 weeks after ONC,"[2]; mouse, in vivo",not
"CC(=O)Oc1ccc(C(OS(=O)(=O)c2ccccc2NCCN(Cc2ccccn2)Cc2ccccn2)C(F)(F)F)cc1 (stereo not shown) [compound 3, 4-(1-(((2-((2-(bis(pyridin-2-ylmethyl)amino)ethyl)amino)phenyl)sulfonyl)oxy)-2,2,2-trifluoroethyl)phenyl acetate]",stability toward hydrolysis,[7],stable at pH 7 for several days without being hydrolyzed
same,susceptibility to esterase cleavage,[8],susceptible to enzymatic cleavage to afford ZX1
Agitoxin-2: blocker of Shaker family K+ channels Kv1.1 and 1.3,RGC survival after optic nerve injury with K+ channel blockers,[2]; FIG. 16,only a small effect on RGC survival
same,RGC survival in combination with TPEN,[2]; FIG. 16,does not augment the effect of TPEN
same,RGC survival after optic nerve injury with K+ channel blockers,"[2]; FIG. 16, listed as AgTx2",slightly improves RGC survival
